Calls of active or inactive are those of the source.
Assays:
[1] = biological target: T1, Dual specificity protein phosphatase 3 (Homo sapiens, UniProt P51452); assay: VHR1 phosphatase inhibitors, biochemical (AID 1878)
[2] = system: Vero; assay: viability of Vero cells under compound – cytotoxicity control for flavivirus capping enzyme inhibitors (AID 588742); assay type: functional; conditions: Chlorocebus sabaeus
[3] = biological target: T2, Small ubiquitin-related modifier 1 (Homo sapiens, UniProt P63165); assay: SUMO1 protein interaction blockers, potency – biochemical, fluorescence polarization, uHTS hits, dose response (AID 624382); assay type: functional; conditions: read-out: IC50_Mean
[4] = biological target: T3, Dual specificity protein phosphatase 6 (Rattus norvegicus, UniProt Q64346); assay: inhibition of rat DUSP6 enzyme activity – biochemical, in vitro, primary screen (AID 425)
T3 sequence (Q64346 whole entry): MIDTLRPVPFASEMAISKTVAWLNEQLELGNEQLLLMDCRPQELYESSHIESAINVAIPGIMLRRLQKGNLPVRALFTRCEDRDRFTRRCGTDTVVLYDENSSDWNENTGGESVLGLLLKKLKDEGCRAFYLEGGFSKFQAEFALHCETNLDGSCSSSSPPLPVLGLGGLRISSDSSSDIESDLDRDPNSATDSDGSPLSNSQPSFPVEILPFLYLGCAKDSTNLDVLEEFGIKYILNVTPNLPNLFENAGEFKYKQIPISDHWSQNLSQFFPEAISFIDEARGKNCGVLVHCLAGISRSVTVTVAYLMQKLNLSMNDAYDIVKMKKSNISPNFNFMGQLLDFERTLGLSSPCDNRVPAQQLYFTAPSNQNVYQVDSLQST

[5] = biological target: T2, Small ubiquitin-related modifier 1; assay: SUMO1 protein-protein binding blockers, potency – biochemical, FRET, dose response (AID 624383); assay type: functional; conditions: read-out: IC50_Mean
[6] = biological target: Genome polyprotein (dengue virus type 2, UniProt P29990); assay: flavivirus cap methylation enzyme inhibition – biochemical, confirmation dose response, primary screen (AID 588689); assay type: functional
[7] = biological target: T1, Dual specificity protein phosphatase 3; assay: VHR1 phosphatase inhibitors, primary screen, biochemical, absorbance, uHTS (AID 1654)
[8] = biological target: T4, Carboxy-terminal domain RNA polymerase II polypeptide A small phosphatase 1 (Homo sapiens, UniProt Q9GZU7); assay: CTDSP1 inhibitors, concentration-response, biochemical, absorbance readout, ultra-high-throughput screen actives (AID 540297); assay type: functional
T4 sequence (Q9GZU7 whole entry): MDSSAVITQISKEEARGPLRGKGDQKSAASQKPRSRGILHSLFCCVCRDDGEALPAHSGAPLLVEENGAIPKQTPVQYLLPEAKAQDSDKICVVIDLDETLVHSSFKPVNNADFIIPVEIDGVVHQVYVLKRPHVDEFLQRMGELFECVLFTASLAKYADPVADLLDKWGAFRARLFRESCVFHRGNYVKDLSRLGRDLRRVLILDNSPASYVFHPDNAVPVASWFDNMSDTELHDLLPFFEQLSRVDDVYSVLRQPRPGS

[9] = inhibition of ARNT PAS-B/TACC3 complex formation – biochemical, AlphaScreen, cherry-picked samples, confirmation (AID 651703); assay type: functional, Homo sapiens;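 also: His-tagged ARNT PAS-B domain paired with GST-TACC3 E629A dimer coactivator fragment; potency of inhibitors that break up the complex and lower AlphaScreen signal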
[10] = cells; assay type: functional, cell-based
[11] = loss of viability in HepG2 cells – cell-based, CellTiter-Glo, cherry-picked, cytotoxicity control for Shn3 inhibitor project, dose response (AID 624134); assay type: functional
[12] = Counterscreen for AddAB inhibitors: absorbance-based bacterial cell-based high throughput dose response assay for inhibitors of bacterial viability. [Related pubchem assays (depositor defined):AID435030, AID449728, AID449731, AID488942, AID488955, AID488956]; assay type: functional
[13] = system: HEK293; assay: EBV LMP1 TES2 canonical NF-kB signalling blockers – cell-based, HEK293, luciferase, cherry-pick, dose response (AID 588343); assay type: functional; conditions: Homo sapiens
[14] = biological target: Heat shock protein HSP 90-alpha (Homo sapiens, UniProt P07900); assay type: functional, organism-based
[15] = reduction of Shn3 3'UTR-driven luciferase in osteoblasts – cell-based, Clone20 osteoblasts, firefly luciferase, cherry-picked, dose response (AID 624132); assay type: functional;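 also: firefly luciferase luminescence from reporter carrying the Shn3 3'UTR in osteoblasts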
[16] = non-specific 3'UTR reporter inhibition in Clone20-Shn3RL – cell-based, Renilla luciferase, cherry-picked, counter-screen for Shn3 inhibitor project, dose response (AID 624133); assay type: functional
[17] = cells; assay type: functional, cell-based; remark: listed apart in the source
[18] = biological target: Exodeoxyribonuclease V (Escherichia coli (strain K12), UniProt P04993+P07648+P08394); assay: RecBCD inhibition via phage-restricted bacterial growth – absorbance, V66 E. coli, mutant T4 phage, counter-screen for AddAB inhibitor project, dose response (AID 492957); assay type: functional, cell-based, Escherichia coli str. K-12 substr. MG1655
[19] = biological target: T5, Ubiquitin-conjugating enzyme E2 N (Homo sapiens, UniProt P61088); assay type: functional
T5 sequence (P61088 whole entry): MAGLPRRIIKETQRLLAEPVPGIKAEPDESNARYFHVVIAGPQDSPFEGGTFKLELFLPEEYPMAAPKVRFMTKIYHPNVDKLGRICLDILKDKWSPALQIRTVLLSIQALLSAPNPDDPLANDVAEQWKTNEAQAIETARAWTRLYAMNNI

[20] = biological target: T6, DNA repair protein RAD52 homolog (Homo sapiens, UniProt P43351); assay type: functional, biochemical
T6 sequence (P43351 whole entry): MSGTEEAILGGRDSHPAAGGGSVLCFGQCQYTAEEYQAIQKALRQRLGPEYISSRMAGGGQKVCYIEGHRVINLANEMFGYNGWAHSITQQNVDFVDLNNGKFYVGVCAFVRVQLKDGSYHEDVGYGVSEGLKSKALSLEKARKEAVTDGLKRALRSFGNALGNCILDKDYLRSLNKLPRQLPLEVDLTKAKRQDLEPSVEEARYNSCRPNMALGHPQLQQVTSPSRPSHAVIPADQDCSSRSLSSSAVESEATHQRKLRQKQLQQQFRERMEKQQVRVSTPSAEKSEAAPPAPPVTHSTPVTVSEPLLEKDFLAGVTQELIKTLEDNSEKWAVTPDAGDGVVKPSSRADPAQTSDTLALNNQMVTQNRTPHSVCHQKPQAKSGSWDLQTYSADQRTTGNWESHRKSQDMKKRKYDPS

[21] = biological target: T5, Ubiquitin-conjugating enzyme E2 N; assay type: functional; remark: listed apart in the source
[22] = biological target: T7, Bcl-2-related protein A1 (Mus musculus, UniProt Q07440); assay type: functional;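 also: confirmatory dose–response counterscreen on Bfl-1, used to check hits from a UBC13 polyubiquitin inhibitor campaign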
T7 sequence (Q07440 whole entry): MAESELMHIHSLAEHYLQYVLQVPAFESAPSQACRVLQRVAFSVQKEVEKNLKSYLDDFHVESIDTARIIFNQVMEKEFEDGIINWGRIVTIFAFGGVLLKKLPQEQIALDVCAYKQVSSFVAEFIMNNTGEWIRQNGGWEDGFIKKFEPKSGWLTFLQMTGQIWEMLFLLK

[23] = system: HEK293; assay: cells; assay type: functional, cell-based; conditions: Homo sapiens
[24] = system: HEK293; assay: NOD2 signaling inhibitors in MDP-stimulated cells, cell-based, uHTS, luminescence (AID 2001); assay type: functional; conditions: Homo sapiens
[25] = system: HEK293; assay: inhibition of NOD1-driven NF-kB reporter – cell-based, luminescence, uHTS, primary screen (AID 1578); assay type: functional; conditions: Homo sapiens
[26] = system: HEK293; assay: cells; assay type: functional, cell-based; conditions: Homo sapiens; remark: listed apart in the source
[27] = system: HEK293; assay: cells; assay type: functional, cell-based; conditions: Homo sapiens; remark: listed apart in the source
[28] = biological target: Nucleotide-binding oligomerization domain-containing protein 2 (Homo sapiens, UniProt Q9HC29); assay: inhibition of NOD2-driven NF-kB reporter – cell-based, luminescence, uHTS, HEK293 (AID 1566); assay type: functional
[29] = biological target: Cannabinoid receptor 1 (Homo sapiens, UniProt P21554); assay: SAR analysis of antagonists of the Cannabinoid Receptor 1 using an Image-Based Assay. [Related pubchem assays (depositor defined):AID1961, AID1965]; assay type: functional
[30] = biological target: T8, Cannabinoid receptor 2 (Homo sapiens, UniProt P34972); assay: SAR analysis of agonists of the Cannabinoid Receptor 2 using an Image-Based Assay - Set 2. [Related pubchem assays (depositor defined):AID1961, AID1965]; assay type: functional
[31] = biological target: T8, Cannabinoid receptor 2; assay: SAR analysis of antagonists of the Cannabinoid Receptor 2 using an Image-Based Assay - Set 2. [Related pubchem assays (depositor defined):AID1961, AID1965]; assay type: functional
[32] = biological target: G-protein coupled receptor 55 (Homo sapiens, UniProt Q9Y2T6); assay: SAR analysis of selective Agonists of GPR55 using an Image-Based Assay. [Related pubchem assays (depositor defined):AID1961, AID1965]; assay type: functional
Chain of G-protein coupled receptor 55 (Q9Y2T6 whole entry): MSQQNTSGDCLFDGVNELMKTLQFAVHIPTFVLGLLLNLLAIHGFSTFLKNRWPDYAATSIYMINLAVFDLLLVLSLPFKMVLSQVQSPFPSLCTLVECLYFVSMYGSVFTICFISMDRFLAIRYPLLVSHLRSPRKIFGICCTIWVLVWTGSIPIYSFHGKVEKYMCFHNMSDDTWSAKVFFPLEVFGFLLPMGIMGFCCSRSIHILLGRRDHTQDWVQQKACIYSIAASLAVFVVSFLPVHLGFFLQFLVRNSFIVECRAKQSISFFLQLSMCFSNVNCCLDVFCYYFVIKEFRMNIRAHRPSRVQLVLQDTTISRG

Chain of Exodeoxyribonuclease V (P04993 whole entry): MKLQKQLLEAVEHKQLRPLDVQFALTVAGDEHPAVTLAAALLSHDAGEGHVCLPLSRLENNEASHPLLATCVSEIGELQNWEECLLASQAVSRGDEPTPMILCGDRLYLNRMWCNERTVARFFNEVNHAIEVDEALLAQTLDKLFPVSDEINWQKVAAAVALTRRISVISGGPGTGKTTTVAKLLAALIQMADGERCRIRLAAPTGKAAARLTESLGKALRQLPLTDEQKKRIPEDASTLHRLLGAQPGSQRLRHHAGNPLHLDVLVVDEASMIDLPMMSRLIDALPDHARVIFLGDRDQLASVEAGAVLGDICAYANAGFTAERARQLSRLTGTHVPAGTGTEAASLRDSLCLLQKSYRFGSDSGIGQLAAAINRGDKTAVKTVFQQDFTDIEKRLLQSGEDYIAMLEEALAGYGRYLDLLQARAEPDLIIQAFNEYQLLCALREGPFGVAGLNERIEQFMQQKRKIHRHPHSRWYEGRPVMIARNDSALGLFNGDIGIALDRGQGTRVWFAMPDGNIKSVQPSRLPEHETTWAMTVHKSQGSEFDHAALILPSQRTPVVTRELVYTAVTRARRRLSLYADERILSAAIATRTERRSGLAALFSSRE
Chain of Exodeoxyribonuclease V (P07648 whole entry): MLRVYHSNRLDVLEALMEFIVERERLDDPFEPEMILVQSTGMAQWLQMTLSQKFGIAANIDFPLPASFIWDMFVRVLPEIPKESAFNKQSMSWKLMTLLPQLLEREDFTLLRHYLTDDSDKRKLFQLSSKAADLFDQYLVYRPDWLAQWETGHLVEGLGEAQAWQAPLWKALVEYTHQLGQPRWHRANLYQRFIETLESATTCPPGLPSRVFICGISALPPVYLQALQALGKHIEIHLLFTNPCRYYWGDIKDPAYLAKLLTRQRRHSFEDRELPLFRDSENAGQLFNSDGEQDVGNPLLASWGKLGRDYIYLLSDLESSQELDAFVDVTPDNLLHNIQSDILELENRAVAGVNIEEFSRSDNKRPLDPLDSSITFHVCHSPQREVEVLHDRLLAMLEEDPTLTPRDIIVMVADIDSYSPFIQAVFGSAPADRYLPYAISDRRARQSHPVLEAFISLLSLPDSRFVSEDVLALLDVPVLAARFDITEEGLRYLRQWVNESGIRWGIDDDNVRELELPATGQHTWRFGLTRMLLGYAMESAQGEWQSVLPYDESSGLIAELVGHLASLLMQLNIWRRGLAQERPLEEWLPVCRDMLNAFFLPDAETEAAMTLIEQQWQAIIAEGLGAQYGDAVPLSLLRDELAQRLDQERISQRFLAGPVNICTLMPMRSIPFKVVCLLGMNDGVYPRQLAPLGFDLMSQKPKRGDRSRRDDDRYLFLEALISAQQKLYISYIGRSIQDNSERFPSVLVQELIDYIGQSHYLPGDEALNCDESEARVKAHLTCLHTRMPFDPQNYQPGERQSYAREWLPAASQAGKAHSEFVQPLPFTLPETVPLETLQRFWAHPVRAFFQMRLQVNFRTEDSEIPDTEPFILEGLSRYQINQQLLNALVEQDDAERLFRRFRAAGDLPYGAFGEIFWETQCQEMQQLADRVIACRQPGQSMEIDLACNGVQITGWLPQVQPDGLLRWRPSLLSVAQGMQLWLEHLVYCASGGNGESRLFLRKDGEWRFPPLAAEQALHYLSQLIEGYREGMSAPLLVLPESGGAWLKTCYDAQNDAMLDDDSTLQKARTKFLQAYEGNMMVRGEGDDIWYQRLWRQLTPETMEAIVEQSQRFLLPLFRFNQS
Chain of Exodeoxyribonuclease V (P08394 whole entry): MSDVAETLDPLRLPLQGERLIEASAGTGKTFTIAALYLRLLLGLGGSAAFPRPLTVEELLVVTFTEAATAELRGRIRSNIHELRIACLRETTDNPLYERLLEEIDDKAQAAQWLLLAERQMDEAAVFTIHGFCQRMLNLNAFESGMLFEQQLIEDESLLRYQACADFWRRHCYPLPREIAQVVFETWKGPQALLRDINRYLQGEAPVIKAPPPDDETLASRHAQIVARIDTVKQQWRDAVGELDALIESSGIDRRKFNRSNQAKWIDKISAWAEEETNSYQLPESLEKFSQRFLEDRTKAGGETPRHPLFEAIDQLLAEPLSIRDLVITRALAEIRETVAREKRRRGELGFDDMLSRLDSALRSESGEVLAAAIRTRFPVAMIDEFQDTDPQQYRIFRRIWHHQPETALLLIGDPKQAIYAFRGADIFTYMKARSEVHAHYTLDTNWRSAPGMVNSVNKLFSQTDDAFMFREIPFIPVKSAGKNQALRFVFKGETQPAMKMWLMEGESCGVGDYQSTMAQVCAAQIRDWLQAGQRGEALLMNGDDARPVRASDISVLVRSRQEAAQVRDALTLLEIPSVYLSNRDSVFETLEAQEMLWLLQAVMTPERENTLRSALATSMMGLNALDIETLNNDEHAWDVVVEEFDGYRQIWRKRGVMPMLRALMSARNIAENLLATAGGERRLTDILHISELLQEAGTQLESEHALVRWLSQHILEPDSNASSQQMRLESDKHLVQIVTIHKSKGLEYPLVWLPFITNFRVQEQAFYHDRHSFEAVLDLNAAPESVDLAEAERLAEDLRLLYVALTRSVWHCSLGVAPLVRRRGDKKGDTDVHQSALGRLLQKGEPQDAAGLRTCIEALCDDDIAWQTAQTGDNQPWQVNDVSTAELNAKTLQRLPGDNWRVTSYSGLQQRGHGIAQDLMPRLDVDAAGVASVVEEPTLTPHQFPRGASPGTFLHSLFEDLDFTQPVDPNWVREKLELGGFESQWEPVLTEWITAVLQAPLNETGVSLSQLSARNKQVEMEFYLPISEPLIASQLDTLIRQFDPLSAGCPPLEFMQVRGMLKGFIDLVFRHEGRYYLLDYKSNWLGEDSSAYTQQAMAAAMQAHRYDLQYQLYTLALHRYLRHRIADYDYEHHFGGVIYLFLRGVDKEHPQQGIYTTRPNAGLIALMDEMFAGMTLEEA
T8 sequence (P34972 whole entry): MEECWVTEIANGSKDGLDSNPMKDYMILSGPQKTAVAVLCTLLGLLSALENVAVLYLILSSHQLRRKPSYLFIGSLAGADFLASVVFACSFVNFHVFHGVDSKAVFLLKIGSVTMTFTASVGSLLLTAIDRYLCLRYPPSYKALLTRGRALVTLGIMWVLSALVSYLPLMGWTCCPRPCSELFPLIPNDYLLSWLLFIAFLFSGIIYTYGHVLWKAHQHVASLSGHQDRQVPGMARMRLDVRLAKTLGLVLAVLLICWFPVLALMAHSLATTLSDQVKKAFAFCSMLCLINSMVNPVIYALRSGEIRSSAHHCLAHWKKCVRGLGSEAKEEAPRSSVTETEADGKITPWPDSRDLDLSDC
T1 sequence (P51452 whole entry): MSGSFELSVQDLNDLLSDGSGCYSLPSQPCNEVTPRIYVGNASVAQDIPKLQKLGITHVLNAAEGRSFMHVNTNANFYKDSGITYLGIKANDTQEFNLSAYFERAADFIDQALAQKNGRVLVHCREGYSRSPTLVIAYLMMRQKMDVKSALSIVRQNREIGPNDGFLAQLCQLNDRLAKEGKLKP
T2 sequence (P63165 whole entry): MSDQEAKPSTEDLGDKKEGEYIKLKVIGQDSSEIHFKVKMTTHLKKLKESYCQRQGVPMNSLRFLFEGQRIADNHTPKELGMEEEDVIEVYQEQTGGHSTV
Chain of Nucleotide-binding oligomerization domain-containing protein 2 (Q9HC29 whole entry, the tested form may be a part): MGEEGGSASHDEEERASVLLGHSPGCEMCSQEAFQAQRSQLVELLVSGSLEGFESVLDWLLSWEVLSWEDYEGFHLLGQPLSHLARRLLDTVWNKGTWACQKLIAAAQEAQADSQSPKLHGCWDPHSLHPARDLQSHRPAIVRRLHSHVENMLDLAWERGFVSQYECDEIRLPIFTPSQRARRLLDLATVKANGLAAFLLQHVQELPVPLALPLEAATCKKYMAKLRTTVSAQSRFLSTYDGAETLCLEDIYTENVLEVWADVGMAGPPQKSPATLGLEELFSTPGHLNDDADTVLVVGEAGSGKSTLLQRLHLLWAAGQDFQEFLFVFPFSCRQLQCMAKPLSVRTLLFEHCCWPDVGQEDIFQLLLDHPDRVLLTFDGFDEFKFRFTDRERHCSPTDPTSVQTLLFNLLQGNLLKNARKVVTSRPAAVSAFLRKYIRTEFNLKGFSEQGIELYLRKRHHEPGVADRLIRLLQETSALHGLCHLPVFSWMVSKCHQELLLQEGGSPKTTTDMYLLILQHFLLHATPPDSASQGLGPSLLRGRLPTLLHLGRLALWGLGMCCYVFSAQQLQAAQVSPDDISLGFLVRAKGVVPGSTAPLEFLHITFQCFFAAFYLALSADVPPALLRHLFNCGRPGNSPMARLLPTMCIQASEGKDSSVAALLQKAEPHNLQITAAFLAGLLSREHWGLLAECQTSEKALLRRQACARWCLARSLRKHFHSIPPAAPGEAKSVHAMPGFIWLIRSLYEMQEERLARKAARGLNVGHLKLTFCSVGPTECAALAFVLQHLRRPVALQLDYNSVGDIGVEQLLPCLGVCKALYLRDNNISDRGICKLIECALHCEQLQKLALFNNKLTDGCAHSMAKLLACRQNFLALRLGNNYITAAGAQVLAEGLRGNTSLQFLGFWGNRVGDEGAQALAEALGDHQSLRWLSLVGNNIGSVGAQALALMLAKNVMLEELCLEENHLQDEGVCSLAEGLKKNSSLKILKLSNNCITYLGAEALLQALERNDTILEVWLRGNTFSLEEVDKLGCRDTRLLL

In the case of `Cc1c(CCC(=O)O)c(=O)oc2c(C)c3occ(-c4ccc(Br)cc4)c3cc12`, the IC50 [1] is reported as 11.3 µM (active), the CC50 [2] is reported as > 40 µM (active) and the IC50 [3] is reported as > 66.6 µM (inactive). The IC50 [4] was 69.2 µM (active), the IC50 [5] was 12.6 µM (active) and the IC50 [6] was 33.2 µM (active). The IC50 [7] was 11.1 µM (active), the IC50 [8] was 3.57 µM (active) and the AC50 [9] was 99.5 µM (active).

In the case of `CC(C)C(=O)NC(c1ccc(Cl)cc1Cl)c1ccc2cccnc2c1O` (centres undefined), the EC50 [10] is reported as 7.49 µM (active), the AC50 [11] is reported as 1.11 µM (active) and the IC50 [12] is reported as > 119 µM (inactive). The AC50 [13] was 4.52 µM (active), the AC50 [14] was 25.5 µM (active) and the AC50 [15] was 0.691 µM (active). The AC50 [16] was 1.6 µM (active), the EC50 [17] was > 350 µM (not active) and the IC50 [18] was > 119 µM (inactive).

With `N[C@@H](CO)c1cn([C@@H](Cc2cc3ccccc3[nH]2)C(=O)N2CCNCC2)nn1` the IC50 [19] was 10.9 µM (active), the AC50 [20] was 3.52 µM (active) and the IC50 [21] was 12.3 µM (active). For the same molecule, the IC50 [22] was > 20 µM (inactive).

With `COc1ccc(OCC(O)CNc2ccc(Br)cc2)cc1` (centres undefined) the IC50 [12] was > 119 µM (inactive) and the IC50 [18] was > 119 µM (inactive).

In the case of `COc1ccc(CCNc2oc(COc3ccccc3Cl)nc2C#N)cc1OC`, the IC50 [23] is reported as > 20 µM (inactive), the IC50 [24] is reported as 8.33 µM (active) and the EC50 [25] is reported as 14 µM (active). For the same molecule, the IC50 [26] was 11.1 µM (active), the IC50 [27] was 8.53 µM (active) and the EC50 [28] was 16 µM (active).

For `C/C(C=NNC(=O)c1nnn(-c2nonc2N)c1CN1CCC(C)CC1)=C/c1ccccc1`, the IC50 [29] was > 32 µM (inactive), the EC50 [30] was > 32 µM (inactive) and the IC50 [31] was > 32 µM (inactive). For the same molecule, the EC50 [32] was 0.681 µM (active).

— ChEMBL document CHEMBL1201862, “PubChem BioAssay data set” (2004)
